Source: patent US20120196899A1, “METHODS AND PRODUCTS FOR TREATING INFLAMMATION” (Rock Creek Pharmaceuticals, Inc., priority 2010, published 2012)
Entries after “also recorded” stand apart in the source; their conditions may differ.

Assays:
phosphorylated p65 = experiment: p65 phosphorylation in brain after intracranial TNFα; assay type: in vivo, Wild-type mice (B6/SJL); settings: 2 mg/kg i.p., mouse brain, normalized to actin
Description: After 5 minutes, mice were intracranially injected with 0.5 mg of TNFα. Mice were euthanized ten minutes after the intracranial injection. The portion of the brain surrounding the intracranial site of injection was collected, and proteins were extracted. Phosphorylation of p65 was measured with an antibody towards phosphorylated p65.

[1] = system: LPS-induced IL-1β release; experiment: LPS-induced IL-1β release in whole human blood; assay type: cell-based
Description: Whole human blood was treated with LPS to stimulate inflammatory responses. […] The inflammatory molecule IL-1β was measured after 16 hours.

[2] = Single i.v. dose toxicity with 14-day observation: clinical signs and mortality; assay type: in vivo, Sprague-Dawley rats; settings: nicotine 0.75 mg/kg single i.v.
Description: Body weight and food consumption was measured daily for 14 days. On day 15, urine was collected on all surviving animals. The animals were euthanized and bled via cardiac puncture, and blood was collected for analysis. Tissues were collected, weighed, evaluated for gross abnormalities, and stored in 10% neutral-buffered formalin.
Four aliquots of each dose formulation were collected and stored at −80° C.
The animals were weighed prior to dosing and received a single i.v. dose via the lateral tail vein of either test compound or vehicle at a volume of 5 mL/kg.

Row | SMILES | p65 phosphorylation (phosphorylated p65) | IL-1β production over time ([1]; LPS-stimulated human blood, repeated measurement (Example 15)) | accumulation of IL-1β ([1]; LPS-treated whole human blood, 16 hours (Example 13)) | accumulation of IL-1β over dose response ([1]; LPS-treated whole human blood, 16 hours (Example 14)) | mortality ([2]; 5 males and 5 females, tartrate) | clinical signs after dosing ([2]; male and female rats)
1 | C1=CCC(c2cccnc2)NC1 (racemic) [Anatabine, 1,2,3,6-tetrahydro-[2,3′]bipyridinyl] | reduced p65 phosphorylation in mouse brain | rapid and continuous effect on the suppression | reduced accumulation of IL-1β | reduced accumulation of IL-1β | – | –
2 | CN1CCCC1c1cccnc1.O=C(O)C(O)C(O)C(=O)O (single isomer, unassigned; (-)) [Nicotine, (−) Nicotine hydrogen tartrate, reference compound] | – | – | – | – | One male and two females died post dose; also recorded: one male animal and 2 females died following test compound administration | experienced tremors upon compound administration but returned to normal within 15-20 minutes post dose
